Drawing on ChEMBL document CHEMBL1649420, “Identifying chelators for metalloprotein inhibitors using a fragment-based approach” (J Med Chem, 2011), this text covers inhibition for 6 molecules.

As usually defined, the inhibition is the change of the read-out against control, counted positive when it falls.

The target of experiment [1] is T1, Polyunsaturated fatty acid 5-lipoxygenase (Homo sapiens) (UniProt P09917).
T1 sequence (whole entry): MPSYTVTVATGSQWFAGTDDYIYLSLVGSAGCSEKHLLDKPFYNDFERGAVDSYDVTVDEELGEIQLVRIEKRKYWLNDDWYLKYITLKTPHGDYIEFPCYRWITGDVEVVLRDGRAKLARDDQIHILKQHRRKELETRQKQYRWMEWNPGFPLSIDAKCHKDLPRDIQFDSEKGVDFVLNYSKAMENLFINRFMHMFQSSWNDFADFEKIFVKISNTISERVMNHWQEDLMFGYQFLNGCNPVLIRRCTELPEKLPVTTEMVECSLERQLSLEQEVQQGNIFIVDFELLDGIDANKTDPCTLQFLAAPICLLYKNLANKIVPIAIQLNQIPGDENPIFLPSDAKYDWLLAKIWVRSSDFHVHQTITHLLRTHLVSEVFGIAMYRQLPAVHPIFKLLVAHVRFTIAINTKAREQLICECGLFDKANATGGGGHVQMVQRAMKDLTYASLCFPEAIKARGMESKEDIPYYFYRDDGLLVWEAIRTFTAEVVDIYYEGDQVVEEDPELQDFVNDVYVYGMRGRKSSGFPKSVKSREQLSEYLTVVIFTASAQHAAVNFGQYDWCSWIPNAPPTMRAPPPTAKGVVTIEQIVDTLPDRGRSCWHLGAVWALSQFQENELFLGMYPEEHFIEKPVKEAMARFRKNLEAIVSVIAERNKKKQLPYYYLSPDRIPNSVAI
Put plainly: Inhibition of human recombinant 5-lipoxygenase at 1 mM after 10 mins by fluorescence assay.

For experiment [2], the target named is T2, Tyrosinase (Agaricus bisporus) (UniProt O42713).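 Further: inhibition measured at 10 min.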
T2 sequence (whole entry): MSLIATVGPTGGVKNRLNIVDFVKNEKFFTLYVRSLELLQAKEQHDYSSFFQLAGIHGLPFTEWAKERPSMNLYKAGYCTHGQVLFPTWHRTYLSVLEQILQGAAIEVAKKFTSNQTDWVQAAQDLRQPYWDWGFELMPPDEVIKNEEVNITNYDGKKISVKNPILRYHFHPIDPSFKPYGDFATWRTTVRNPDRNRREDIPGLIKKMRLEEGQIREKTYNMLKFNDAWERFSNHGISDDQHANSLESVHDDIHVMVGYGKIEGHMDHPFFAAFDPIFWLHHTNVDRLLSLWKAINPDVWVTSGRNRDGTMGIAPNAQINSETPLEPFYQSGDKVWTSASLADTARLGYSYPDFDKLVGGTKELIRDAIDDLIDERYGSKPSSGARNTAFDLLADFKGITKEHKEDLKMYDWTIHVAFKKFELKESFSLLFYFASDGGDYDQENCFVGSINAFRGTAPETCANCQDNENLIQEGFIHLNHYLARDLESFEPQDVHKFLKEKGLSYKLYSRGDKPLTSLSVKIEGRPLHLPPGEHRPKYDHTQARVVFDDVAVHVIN
Particulars: at 1 mM.

For experiment [3], the target named is T3, Lethal factor (Bacillus anthracis) (UniProt P15917).
T3 sequence (whole entry): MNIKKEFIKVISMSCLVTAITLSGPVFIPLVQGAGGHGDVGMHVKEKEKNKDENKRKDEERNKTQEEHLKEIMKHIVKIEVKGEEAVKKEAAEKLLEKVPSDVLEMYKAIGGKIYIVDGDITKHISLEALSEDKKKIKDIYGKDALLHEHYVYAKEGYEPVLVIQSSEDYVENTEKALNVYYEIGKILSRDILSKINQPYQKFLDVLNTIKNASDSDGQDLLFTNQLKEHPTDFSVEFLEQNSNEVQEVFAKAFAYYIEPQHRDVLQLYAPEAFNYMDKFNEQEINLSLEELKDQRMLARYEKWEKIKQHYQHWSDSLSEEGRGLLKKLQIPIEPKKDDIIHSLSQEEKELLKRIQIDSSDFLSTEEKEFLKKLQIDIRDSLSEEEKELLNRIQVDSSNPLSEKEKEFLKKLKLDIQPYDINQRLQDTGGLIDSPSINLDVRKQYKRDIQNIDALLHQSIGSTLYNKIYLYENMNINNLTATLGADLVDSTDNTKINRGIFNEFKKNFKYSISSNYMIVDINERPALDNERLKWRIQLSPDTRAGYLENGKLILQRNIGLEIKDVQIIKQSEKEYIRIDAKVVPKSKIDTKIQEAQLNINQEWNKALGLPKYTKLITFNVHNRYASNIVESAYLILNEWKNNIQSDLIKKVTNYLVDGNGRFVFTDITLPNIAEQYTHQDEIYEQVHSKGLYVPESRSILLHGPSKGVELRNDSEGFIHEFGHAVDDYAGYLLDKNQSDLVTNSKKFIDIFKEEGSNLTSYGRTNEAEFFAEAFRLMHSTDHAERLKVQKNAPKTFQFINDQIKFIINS
To be noted: at 1 mM.

The target in experiment [4] is 72 kDa type IV collagenase (Homo sapiens, UniProt P08253). Particulars: at 1 mM.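 Further: recombinant human enzyme, inhibition read after a 30 min incubation.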
72 kDa type IV collagenase, sequence (P08253 110-660 limits assumed): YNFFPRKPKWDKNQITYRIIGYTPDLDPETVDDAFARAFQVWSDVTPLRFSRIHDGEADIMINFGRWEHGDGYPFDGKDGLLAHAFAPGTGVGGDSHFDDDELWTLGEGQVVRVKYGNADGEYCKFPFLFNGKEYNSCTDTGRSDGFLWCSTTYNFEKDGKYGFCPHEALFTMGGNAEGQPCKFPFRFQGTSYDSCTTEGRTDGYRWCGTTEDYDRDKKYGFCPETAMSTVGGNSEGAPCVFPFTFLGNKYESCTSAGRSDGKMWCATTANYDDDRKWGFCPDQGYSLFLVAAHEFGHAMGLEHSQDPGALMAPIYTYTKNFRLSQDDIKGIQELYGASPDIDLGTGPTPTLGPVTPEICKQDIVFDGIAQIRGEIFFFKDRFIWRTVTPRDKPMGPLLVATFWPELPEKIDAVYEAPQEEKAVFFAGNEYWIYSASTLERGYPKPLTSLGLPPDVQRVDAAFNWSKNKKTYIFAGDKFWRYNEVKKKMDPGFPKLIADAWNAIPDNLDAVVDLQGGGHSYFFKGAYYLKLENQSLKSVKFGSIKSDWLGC
Experiment [5] deals with Matrix metalloproteinase-9 (Homo sapiens) (UniProt P14780). To be noted: at 1 mM.
Matrix metalloproteinase-9 (Homo sapiens), sequence (P14780 whole entry): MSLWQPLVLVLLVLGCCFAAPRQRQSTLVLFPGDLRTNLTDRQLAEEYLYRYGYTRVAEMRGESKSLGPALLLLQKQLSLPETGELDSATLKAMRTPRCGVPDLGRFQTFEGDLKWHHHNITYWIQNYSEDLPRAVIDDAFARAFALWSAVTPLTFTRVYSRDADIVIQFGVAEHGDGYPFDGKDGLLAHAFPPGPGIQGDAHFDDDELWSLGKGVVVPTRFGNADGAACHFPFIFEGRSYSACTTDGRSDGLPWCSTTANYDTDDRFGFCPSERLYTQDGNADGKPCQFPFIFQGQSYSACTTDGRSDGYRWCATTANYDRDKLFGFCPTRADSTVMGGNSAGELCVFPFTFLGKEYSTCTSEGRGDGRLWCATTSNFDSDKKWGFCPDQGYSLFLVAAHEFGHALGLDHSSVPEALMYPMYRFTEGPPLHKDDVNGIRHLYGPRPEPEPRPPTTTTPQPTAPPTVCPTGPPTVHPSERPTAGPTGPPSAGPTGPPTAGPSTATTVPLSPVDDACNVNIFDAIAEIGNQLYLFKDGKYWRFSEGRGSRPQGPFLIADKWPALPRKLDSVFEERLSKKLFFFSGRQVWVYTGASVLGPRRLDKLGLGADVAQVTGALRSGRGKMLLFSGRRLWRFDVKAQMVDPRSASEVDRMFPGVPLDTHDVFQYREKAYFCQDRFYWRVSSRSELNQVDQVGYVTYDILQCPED

On to `O=C(O)c1cccc(C(=O)O)n1`, for which the inhibition was 31% in experiment [1]; 99% in experiment [2]; 83% in experiment [3]; -6% in experiment [4]; -7% in experiment [5].

In the case of `O=c1ccocc1O`, the inhibition was 81% in experiment [1]; 38% in experiment [2]; 29% in experiment [3]; 48% in experiment [4]; 45% in experiment [5].

In the case of `O=C(O)c1ncccc1O`, the inhibition came to 17% in experiment [1]; 87% in experiment [2]; 43% in experiment [3]; 58% in experiment [4]; 19% in experiment [5].

On to `O=C(O)c1ccccn1`, for which the inhibition in experiment [1] amounted to 16%; in experiment [2], 74%; in experiment [3], 49%; in experiment [4], 25%; in experiment [5], 0%.

`O=C(O)c1cccc[n+]1[O-]`: the inhibition in experiment [1] was found to be 31%; in experiment [2] it was 88%; in experiment [3], 40%; in experiment [4], 1%; in experiment [5], 8%.

Regarding `Cc1cc(O)nc(C)n1`, the inhibition in experiment [1] was 26%; in experiment [2], -10%; in experiment [3], 18%; in experiment [4], 2%; in experiment [5] it was 1%.
